Measurements from PubChem BioAssay AID250 (DTP/NCI, 2004).
“And” between values parts separate entries of the source, which are not always exact repeats. Identical values can stand only once. Toxic doses and inconclusive results are not listed.

System: BDF1 mice, L1210 leukemia sc, survival T/C
Assay: NCI In Vivo Anticancer Drug Screen. Data for tumor model L1210 Leukemia (subcutaneous) in B6D2F1 (BDF1) mice
Conditions: endpoint: median survival time, higher = longer survival
How it was run: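 Mice carrying transplanted tumors received test compounds, and survival or tumor size was measured. Values are the treated-group measurement (T) divided by that of the vehicle-treated control group (C).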

[1] = dose: 39.0 mg/kg/injection, schedule: Q01DX Z (sc), vehicle: methylcellulose (MC)
[2] = dose: 180.0 mg/kg/injection, schedule: Q01DX Z (sc), vehicle: methylcellulose (MC)
[3] = dose: 300.0 mg/kg/injection, schedule: Q01DX Z (sc), vehicle: methylcellulose (MC)
[4] = dose: 108.0 mg/kg/injection, schedule: Q01DX Z (sc), vehicle: methylcellulose (MC)
[5] = dose: 500.0 mg/kg/injection, schedule: Q01DX Z (sc), vehicle: methylcellulose (MC)
[6] = dose: 65.0 mg/kg/injection, schedule: Q01DX Z (sc), vehicle: methylcellulose (MC)
[7] = dose: 14.0 mg/kg/injection, schedule: Q01DX Z (sc), vehicle: methylcellulose (MC)
[8] = dose: 23.0 mg/kg/injection, schedule: Q01DX Z (sc), vehicle: methylcellulose (MC)
[9] = dose: 65.0 mg/kg/injection, schedule: Q01DX Z (sc), vehicle: saline
[10] = dose: 108.0 mg/kg/injection, schedule: Q01DX Z (sc), vehicle: saline

## C[C@H](CN1CC(=O)NC(=O)C1)N1CC(=O)NC(=O)C1
dose: 8.0 mg/kg/injection, schedule: Q01DX009 (ip), vehicle: water
  T/C: 104 % of control
dose: 16.0 mg/kg/injection, schedule: Q01DX009 (ip), vehicle: water
  T/C: 119 % of control
dose: 32.0 mg/kg/injection, schedule: Q01DX009 (ip), vehicle: water
  T/C: 119 % of control and 124 % of control
dose: 256.0 mg/kg/injection, schedule: Q01DX009 (ip), vehicle: water
  T/C: 118 % of control
dose: 512.0 mg/kg/injection, schedule: Q01DX009 (ip), vehicle: water
  T/C: 113 % of control

## O=C(Nc1ccc(C2=NCCN2)cc1)c1ccc(NC(=O)c2ccc(C3=NCCN3)cc2)cc1
[1]
  T/C: 95 % of control
[2]
  T/C: 115 % of control
[3]
  T/C: 110 % of control

## c1ccc(CNc2ncnc3[nH]ncc23)cc1
dose: 23.3 mg/kg/injection, schedule: Q01DX Z (sc), vehicle: methylcellulose (MC)
  T/C: 115 % of control
dose: 64.8 mg/kg/injection, schedule: Q01DX Z (sc), vehicle: methylcellulose (MC)
  T/C: 120 % of control
[4]
  T/C: 110 % of control
[2]
  T/C: 110 % of control
[3]
  T/C: 100 % of control
[5]
  T/C: 100 % of control

## O=C1CCC(N2C(=O)c3ccccc3C2=O)C(=O)N1 (centres undefined)
dose: 6.0 mg/kg/injection, schedule: Q01DX Z (sc), vehicle: methylcellulose (MC)
  T/C: 100 % of control
dose: 12.0 mg/kg/injection, schedule: Q01DX Z (sc), vehicle: methylcellulose (MC)
  T/C: 100 % of control
dose: 24.0 mg/kg/injection, schedule: Q01DX Z (sc), vehicle: methylcellulose (MC)
  T/C: 100 % of control
dose: 48.0 mg/kg/injection, schedule: Q01DX Z (sc), vehicle: methylcellulose (MC)
  T/C: 100 % of control
[6]
  T/C: 100 % of control
[4]
  T/C: 94 % of control
[2]
  T/C: 88 % of control
[3]
  T/C: 100 % of control
[5]
  T/C: 100 % of control

## Nc1nc(SCc2ccccc2)c2[nH]cnc2n1
[2]
  T/C: 122 % of control
[3]
  T/C: 122 % of control
[5]
  T/C: 111 % of control

## C1OC1CN1CCC(C2CCN(CC3CO3)CC2)CC1 (centres undefined)
dose: 5.0 mg/kg/injection, schedule: Q01DX Z (sc), vehicle: methylcellulose (MC)
  T/C: 109 % of control
[7]
  T/C: 109 % of control
[8]
  T/C: 104 % of control
dose: 65.0 mg/kg/injection, schedule: Q03DX Z (sc), vehicle: methylcellulose (MC)
  T/C: 109 % of control
[4]
  T/C: 118 % of control
dose: 180.0 mg/kg/injection, schedule: Q03DX Z (sc), vehicle: methylcellulose (MC)
  T/C: 118 % of control

## CCOC(=O)c1ccc(N)nc1
dose: 1.81 mg/kg/injection, schedule: Q01DX Z (sc), vehicle: water
  T/C: 100 % of control
dose: 3.02 mg/kg/injection, schedule: Q01DX Z (sc), vehicle: water
  T/C: 100 % of control
dose: 5.04 mg/kg/injection, schedule: Q01DX Z (sc), vehicle: water
  T/C: 100 % of control
dose: 8.4 mg/kg/injection, schedule: Q01DX Z (sc), vehicle: water
  T/C: 100 % of control
dose: 14.0 mg/kg/injection, schedule: Q01DX Z (sc), vehicle: water
  T/C: 100 % of control
dose: 23.3 mg/kg/injection, schedule: Q01DX Z (sc), vehicle: water
  T/C: 100 % of control
dose: 38.9 mg/kg/injection, schedule: Q01DX Z (sc), vehicle: water
  T/C: 100 % of control

## COS(C)(=O)=O
dose: 23.0 mg/kg/injection, schedule: Q01DX Z (sc), vehicle: water
  T/C: 100 % of control
dose: 39.0 mg/kg/injection, schedule: Q01DX Z (sc), vehicle: water
  T/C: 94 % of control
dose: 65.0 mg/kg/injection, schedule: Q01DX Z (sc), vehicle: water
  T/C: 100 % of control

## CC(=O)c1ccc(NC(=O)N(CCCl)N=O)cc1
dose: 39.0 mg/kg/injection, schedule: Q01DX Z (sc), vehicle: carboxymethylcellulose (CMC)
  T/C: 183 % of control
dose: 65.0 mg/kg/injection, schedule: Q01DX Z (sc), vehicle: carboxymethylcellulose (CMC)
  T/C: 211 % of control

## CCN(CC)P(=O)(N1CC1)N1CC1
dose: 1.08 mg/kg/injection, schedule: Q01DX Z (sc), vehicle: saline
  T/C: 100 % of control
dose: 1.8 mg/kg/injection, schedule: Q01DX Z (sc), vehicle: saline
  T/C: 100 % of control
dose: 3.0 mg/kg/injection, schedule: Q01DX Z (sc), vehicle: saline
  T/C: 110 % of control
dose: 5.0 mg/kg/injection, schedule: Q01DX Z (sc), vehicle: saline
  T/C: 115 % of control
dose: 8.4 mg/kg/injection, schedule: Q01DX Z (sc), vehicle: saline
  T/C: 170 % of control and 194 % of control
dose: 14.0 mg/kg/injection, schedule: Q01DX Z (sc), vehicle: saline
  T/C: 150 % of control and 183 % of control
dose: 23.0 mg/kg/injection, schedule: Q01DX Z (sc), vehicle: saline
  T/C: 155 % of control
dose: 39.0 mg/kg/injection, schedule: Q01DX Z (sc), vehicle: saline
  T/C: 111 % of control
[9]
  T/C: 111 % of control
[10]
  T/C: 100 % of control

## Clc1ncnc2c1ncn2C1CCCO1 (centres undefined)
dose: 8.4 mg/kg/injection, schedule: Q01DX Z (sc), vehicle: methylcellulose (MC)
  T/C: 100 % of control
[7]
  T/C: 100 % of control
[8]
  T/C: 100 % of control
[1]
  T/C: 100 % of control
[6]
  T/C: 100 % of control
[4]
  T/C: 100 % of control
[2]
  T/C: 100 % of control
[3]
  T/C: 110 % of control
[5]
  T/C: 100 % of control

## Cc1cc(N)c2cc(NC(=O)CCCCCCCCC(=O)Nc3ccc4nc(C)cc(N)c4c3)ccc2n1
[9]
  T/C: 91 % of control
[10]
  T/C: 91 % of control
dose: 130.0 mg/kg/injection, schedule: Q01DX Z (sc), vehicle: saline
  T/C: 91 % of control
dose: 180.0 mg/kg/injection, schedule: Q01DX Z (sc), vehicle: saline
  T/C: 91 % of control
dose: 216.0 mg/kg/injection, schedule: Q01DX Z (sc), vehicle: saline
  T/C: 91 % of control
dose: 300.0 mg/kg/injection, schedule: Q01DX Z (sc), vehicle: saline
  T/C: 91 % of control
dose: 360.0 mg/kg/injection, schedule: Q01DX Z (sc), vehicle: saline
  T/C: 91 % of control
dose: 500.0 mg/kg/injection, schedule: Q01DX Z (sc), vehicle: saline
  T/C: 95 % of control
dose: 600.0 mg/kg/injection, schedule: Q01DX Z (sc), vehicle: saline
  T/C: 91 % of control
dose: 1000.0 mg/kg/injection, schedule: Q01DX Z (sc), vehicle: saline
  T/C: 95 % of control

## CC(=O)OCC(=O)[C@@]1(O)CC[C@H]2[C@@H]3CCC4=CC(=O)CC[C@]4(C)[C@@]3(F)[C@@H](O)C[C@@]21C
[1]
  T/C: 100 % of control
[6]
  T/C: 100 % of control
[4]
  T/C: 100 % of control
[2]
  T/C: 104 % of control
[3]
  T/C: 100 % of control
[5]
  T/C: 100 % of control

## Nc1ccc(OC(=O)Oc2ccc(N)cc2)cc1
dose: 180.0 mg/kg/injection, schedule: Q01DX Z (sc), vehicle: carboxymethylcellulose (CMC)
  T/C: 111 % of control
dose: 833.0 mg/kg/injection, schedule: Q01DX Z (sc), vehicle: carboxymethylcellulose (CMC)
  T/C: 100 % of control

## C[n+]1ccc(Nc2ccc(NC(=O)c3ccc(Nc4cc[n+](C)c5ccc(N)cc45)cc3)cc2)cc1
dose: 0.5 mg/kg/injection, schedule: Q01DX009 (ip), vehicle: Klucel (hydroxypropylcellulose) (HPC)
  T/C: 100 % of control
dose: 1.0 mg/kg/injection, schedule: Q01DX009 (ip), vehicle: Klucel (hydroxypropylcellulose) (HPC)
  T/C: 110 % of control
dose: 2.0 mg/kg/injection, schedule: Q01DX009 (ip), vehicle: Klucel (hydroxypropylcellulose) (HPC)
  T/C: 182 % of control
dose: 4.0 mg/kg/injection, schedule: Q01DX009 (ip), vehicle: Klucel (hydroxypropylcellulose) (HPC)
  T/C: 250 % of control
dose: 8.0 mg/kg/injection, schedule: Q01DX009 (ip), vehicle: Klucel (hydroxypropylcellulose) (HPC)
  T/C: 291 % of control

## CCN(CC)CCNC(=O)N(Cc1ccccc1)c1ccccc1
dose: 22.0 mg/kg/injection, schedule: Q01DX Z (sc), vehicle: methylcellulose (MC)
  T/C: 100 % of control
dose: 37.0 mg/kg/injection, schedule: Q01DX Z (sc), vehicle: methylcellulose (MC)
  T/C: 100 % of control
dose: 62.0 mg/kg/injection, schedule: Q01DX Z (sc), vehicle: methylcellulose (MC)
  T/C: 100 % of control
dose: 104.0 mg/kg/injection, schedule: Q01DX Z (sc), vehicle: methylcellulose (MC)
  T/C: 100 % of control
dose: 173.0 mg/kg/injection, schedule: Q01DX Z (sc), vehicle: methylcellulose (MC)
  T/C: 100 % of control
dose: 288.0 mg/kg/injection, schedule: Q01DX Z (sc), vehicle: methylcellulose (MC)
  T/C: 100 % of control
dose: 480.0 mg/kg/injection, schedule: Q01DX Z (sc), vehicle: methylcellulose (MC)
  T/C: 100 % of control
dose: 800.0 mg/kg/injection, schedule: Q01DX Z (sc), vehicle: methylcellulose (MC)
  T/C: 100 % of control
